Test results published in US9296704B2, “Substituted pyrimidines as protein kinase inhibitors” (CELGENE AVILOMICS RESEARCH, INC., priority 2007, dated 2016).

Legend:
EGFR (WT) = target: T1, EGFR (WT) (Homo sapiens, UniProt P00533); test: Omnia continuous-read kinase assay, EGFR (WT); type: biochemical; conditions: read-out: EGFR inhibtion
T1 construct: purchased Invitrogen PV3872
Source text: (§1) The protocol below describes continuous-read kinase assays to measure inherent potency of compounds against active forms of EGFR (WT) and EGFR (T790M/L858R) enzymes. The mechanics of the assay platform are best described by the vendor (Invitrogen, Carlsbad, Calif.) on their website at the following URL: http://www.invitrogen.com/content.cfm?pageid=11338 or http://www.invitrogen.com/site/us/en/home/Products-and-Services/Applications/Drug-Discovery/Target-and-Lead-Identification-and-Validation/KinaseBiology/KB-Misc/Biochemical-Assays/Omnia-Kinase-Assays.html.
(§2) Briefly, 10× stocks of EGFR-WT (PV3872) from Invitrogen and EGFR-T790M/L858R (40350) from BPS Bioscience, San Diego, Calif., 1.13×ATP (AS001A) and appropriate Tyr-Sox conjugated peptide substrates (KCZI001) were prepared in 1× kinase reaction buffer consisting of 20 mM Tris, pH 7.5, 5 mM MgCl2, 1 mM EGTA, 5 mM β-glycerophosphate, 5% glycerol (10× stock, KB002A) and 0.2 mM DTT (DS001A). 5 μL of each enzyme were pre-incubated in a Corning (#3574) 384-well, white, non-binding surface microtiter plate (Corning, NY) for 30 min. at 27° C. with a 0.5 μL volume of 50% DMSO and serially diluted compounds prepared in 50% DMSO. Kinase reactions were started with the addition of 45 μL of the ATP/Tyr-Sox peptide substrate mix and monitored every 30-90 seconds for 60 minutes at λex360/λem485 in a Synergy^4 plate reader from BioTek (Winooski, Vt.). At the conclusion of each assay, progress curves from each well were examined for linear reaction kinetics and fit statistics (R^2, 95% confidence interval, absolute sum of squares). Initial velocity (0 minutes to ˜30 minutes) from each reaction was determined from the slope of a plot of relative fluorescence units vs time (minutes) and then plotted against inhibitor concentration to estimate IC50 from log [Inhibitor] vs Response, Variable Slope model in GraphPad Prism from GraphPad Software (San Diego, Calif.).
(§3) The EGFR-WT- and EGFR T790M/L858R-modified optimized reagent conditions are: • [EGFR-WT]=5 nM, [ATP]=[…], [Y12-Sox]=[…]; and [EGFR-T790M/L858R]=3 nM, [ATP]=[…], [Y12-Sox]=[…].

BTK = BTK (Homo sapiens, UniProt Q06187); test: Omnia assay for potency against BTK; type: biochemical; conditions: read-out: BTK Inhibition
Source text: as §1, §2
The Omnia Assay Protocol for potency assessment against BTK is performed in a substantially similar manner as that described in Example 25 above except that the modified BTK-optimized reagent conditions are: • [BTK]=5 nM, [ATP]=[…], [Y5-Sox]=[…] (ATP KMapp ˜[…]).

EGFR (T790M/L858R) = target: T2, EGFR (T790M/L858R) (Homo sapiens, UniProt P00533, L858R/T790M); test: Omnia continuous-read kinase assay, EGFR (T790M/L858R); type: biochemical; conditions: read-out: EGFR (T790M/L858R) inhibiton
T2 construct: purchased BPS Bioscience 40350
Source text: as §1, §2, §3

ErbB1 = ErbB1 (Homo sapiens, UniProt P00533); test: Z'-LYTE biochemical assay, ErbB1 kinase inhibition; conditions: @ 1 μM
Protocol: Compounds of the present invention were assayed as inhibitors of one or more of ErbB1, ErbB2, and/or ErbB4 in a manner substantially similar to the method described by Invitrogen Corp (Invitrogen Corporation, 1600 Faraday Avenue, Carlsbad, Calif., CA; http://www.invitrogen.com/downloads/Z-LYTE_Brochure—1205.pdf) using the Z′-LYTE™ biochemical assay procedure or similar biochemical assay. The Z′-LYTE™ biochemical assay employs a fluorescence-based, coupled-enzyme format and is based on the differential sensitivity of phosphorylated and non-phosphorylated peptides to proteolytic cleavage.

JAK3 = target: T3, JAK3 (Homo sapiens, UniProt P52333); test: Omnia assay for potency against JAK3; type: biochemical; conditions: read-out: JAK3 Inhibition
T3 sequence (P52333 1-1124): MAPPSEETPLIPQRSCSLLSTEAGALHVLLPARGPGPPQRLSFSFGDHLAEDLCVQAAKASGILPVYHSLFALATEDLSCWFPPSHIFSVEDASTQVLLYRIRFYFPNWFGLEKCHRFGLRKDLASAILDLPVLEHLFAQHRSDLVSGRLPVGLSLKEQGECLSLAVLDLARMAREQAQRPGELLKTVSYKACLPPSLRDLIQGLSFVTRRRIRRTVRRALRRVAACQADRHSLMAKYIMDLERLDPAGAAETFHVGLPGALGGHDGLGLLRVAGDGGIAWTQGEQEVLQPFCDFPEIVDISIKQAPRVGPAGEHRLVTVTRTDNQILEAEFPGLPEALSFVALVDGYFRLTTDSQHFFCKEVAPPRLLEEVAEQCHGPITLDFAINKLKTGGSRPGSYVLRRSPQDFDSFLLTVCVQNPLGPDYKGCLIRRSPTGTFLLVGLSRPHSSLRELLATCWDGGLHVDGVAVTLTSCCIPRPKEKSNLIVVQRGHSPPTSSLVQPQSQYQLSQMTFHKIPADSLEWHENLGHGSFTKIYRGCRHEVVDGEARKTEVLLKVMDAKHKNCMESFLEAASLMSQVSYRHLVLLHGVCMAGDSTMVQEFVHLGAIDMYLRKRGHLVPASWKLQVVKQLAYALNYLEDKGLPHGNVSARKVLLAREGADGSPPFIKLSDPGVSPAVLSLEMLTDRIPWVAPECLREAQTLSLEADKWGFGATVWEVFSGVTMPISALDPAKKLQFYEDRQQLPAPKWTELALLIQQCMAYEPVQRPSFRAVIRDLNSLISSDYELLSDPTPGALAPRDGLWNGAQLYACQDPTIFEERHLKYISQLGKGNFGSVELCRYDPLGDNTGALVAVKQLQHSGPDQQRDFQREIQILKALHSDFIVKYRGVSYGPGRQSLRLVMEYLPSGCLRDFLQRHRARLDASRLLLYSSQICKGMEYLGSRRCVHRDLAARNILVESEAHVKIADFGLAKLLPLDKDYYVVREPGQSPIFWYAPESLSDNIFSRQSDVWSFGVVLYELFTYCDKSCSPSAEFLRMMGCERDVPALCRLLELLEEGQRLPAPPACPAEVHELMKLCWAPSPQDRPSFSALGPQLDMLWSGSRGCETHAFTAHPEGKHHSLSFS
Source text: as §1, §2
The Omnia Assay Protocol for potency assessment against JAK3 is performed in a substantially similar manner as that described in Example 25 above except that the modified JAK3-optimized reagent conditions are: • [JAK3]=5 nM, [ATP]=5 μM, [Y12-Sox]=5 μM (ATP KMapp ˜[…]).

Chain of BTK (Q06187 whole entry): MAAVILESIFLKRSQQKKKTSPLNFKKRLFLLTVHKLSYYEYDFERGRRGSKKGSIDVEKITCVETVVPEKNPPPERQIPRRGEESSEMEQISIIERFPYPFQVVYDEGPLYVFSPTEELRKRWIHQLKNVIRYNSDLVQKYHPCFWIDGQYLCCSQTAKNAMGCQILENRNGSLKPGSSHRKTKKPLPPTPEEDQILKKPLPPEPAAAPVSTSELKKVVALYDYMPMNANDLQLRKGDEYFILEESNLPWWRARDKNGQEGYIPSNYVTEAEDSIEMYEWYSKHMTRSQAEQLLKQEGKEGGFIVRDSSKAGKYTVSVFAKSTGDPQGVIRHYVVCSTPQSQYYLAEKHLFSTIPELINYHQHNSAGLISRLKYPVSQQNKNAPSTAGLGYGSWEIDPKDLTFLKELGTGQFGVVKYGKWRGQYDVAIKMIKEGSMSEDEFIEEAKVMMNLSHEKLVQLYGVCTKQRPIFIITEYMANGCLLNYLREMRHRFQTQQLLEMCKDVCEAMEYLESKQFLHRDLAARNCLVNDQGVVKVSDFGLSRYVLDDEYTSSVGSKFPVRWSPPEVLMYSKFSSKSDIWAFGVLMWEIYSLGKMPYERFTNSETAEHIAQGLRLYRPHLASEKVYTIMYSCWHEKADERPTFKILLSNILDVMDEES
T2 sequence (P00533 25-1210 T790M/L858R): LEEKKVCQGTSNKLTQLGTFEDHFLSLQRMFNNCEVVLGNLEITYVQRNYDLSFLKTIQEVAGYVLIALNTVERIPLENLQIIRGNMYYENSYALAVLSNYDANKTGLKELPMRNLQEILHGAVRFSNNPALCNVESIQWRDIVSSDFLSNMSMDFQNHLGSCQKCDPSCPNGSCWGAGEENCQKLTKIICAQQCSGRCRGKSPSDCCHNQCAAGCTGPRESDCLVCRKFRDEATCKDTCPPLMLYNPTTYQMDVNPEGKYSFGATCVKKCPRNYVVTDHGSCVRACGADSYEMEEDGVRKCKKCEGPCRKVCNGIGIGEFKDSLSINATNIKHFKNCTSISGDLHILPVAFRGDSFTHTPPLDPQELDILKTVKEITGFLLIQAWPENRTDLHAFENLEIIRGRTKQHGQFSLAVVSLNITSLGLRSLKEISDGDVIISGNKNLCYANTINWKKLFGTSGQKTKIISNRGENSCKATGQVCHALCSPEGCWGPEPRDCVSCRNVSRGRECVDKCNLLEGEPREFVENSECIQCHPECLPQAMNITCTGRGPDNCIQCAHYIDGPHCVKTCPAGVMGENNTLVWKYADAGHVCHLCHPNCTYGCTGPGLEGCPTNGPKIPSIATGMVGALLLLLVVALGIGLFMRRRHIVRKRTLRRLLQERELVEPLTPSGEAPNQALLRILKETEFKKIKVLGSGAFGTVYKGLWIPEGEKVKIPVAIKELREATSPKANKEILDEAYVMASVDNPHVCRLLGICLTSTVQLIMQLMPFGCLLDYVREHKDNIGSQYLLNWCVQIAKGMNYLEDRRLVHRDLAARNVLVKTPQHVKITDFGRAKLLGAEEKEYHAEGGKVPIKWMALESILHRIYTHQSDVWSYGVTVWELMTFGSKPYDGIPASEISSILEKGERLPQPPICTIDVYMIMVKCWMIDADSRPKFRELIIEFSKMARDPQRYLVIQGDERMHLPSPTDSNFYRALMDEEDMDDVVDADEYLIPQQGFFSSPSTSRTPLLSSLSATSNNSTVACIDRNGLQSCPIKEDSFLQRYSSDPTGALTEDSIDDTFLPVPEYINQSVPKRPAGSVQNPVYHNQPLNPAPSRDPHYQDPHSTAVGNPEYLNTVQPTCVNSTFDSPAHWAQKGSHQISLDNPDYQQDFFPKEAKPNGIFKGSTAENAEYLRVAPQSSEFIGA
T1 sequence (P00533 25-1210): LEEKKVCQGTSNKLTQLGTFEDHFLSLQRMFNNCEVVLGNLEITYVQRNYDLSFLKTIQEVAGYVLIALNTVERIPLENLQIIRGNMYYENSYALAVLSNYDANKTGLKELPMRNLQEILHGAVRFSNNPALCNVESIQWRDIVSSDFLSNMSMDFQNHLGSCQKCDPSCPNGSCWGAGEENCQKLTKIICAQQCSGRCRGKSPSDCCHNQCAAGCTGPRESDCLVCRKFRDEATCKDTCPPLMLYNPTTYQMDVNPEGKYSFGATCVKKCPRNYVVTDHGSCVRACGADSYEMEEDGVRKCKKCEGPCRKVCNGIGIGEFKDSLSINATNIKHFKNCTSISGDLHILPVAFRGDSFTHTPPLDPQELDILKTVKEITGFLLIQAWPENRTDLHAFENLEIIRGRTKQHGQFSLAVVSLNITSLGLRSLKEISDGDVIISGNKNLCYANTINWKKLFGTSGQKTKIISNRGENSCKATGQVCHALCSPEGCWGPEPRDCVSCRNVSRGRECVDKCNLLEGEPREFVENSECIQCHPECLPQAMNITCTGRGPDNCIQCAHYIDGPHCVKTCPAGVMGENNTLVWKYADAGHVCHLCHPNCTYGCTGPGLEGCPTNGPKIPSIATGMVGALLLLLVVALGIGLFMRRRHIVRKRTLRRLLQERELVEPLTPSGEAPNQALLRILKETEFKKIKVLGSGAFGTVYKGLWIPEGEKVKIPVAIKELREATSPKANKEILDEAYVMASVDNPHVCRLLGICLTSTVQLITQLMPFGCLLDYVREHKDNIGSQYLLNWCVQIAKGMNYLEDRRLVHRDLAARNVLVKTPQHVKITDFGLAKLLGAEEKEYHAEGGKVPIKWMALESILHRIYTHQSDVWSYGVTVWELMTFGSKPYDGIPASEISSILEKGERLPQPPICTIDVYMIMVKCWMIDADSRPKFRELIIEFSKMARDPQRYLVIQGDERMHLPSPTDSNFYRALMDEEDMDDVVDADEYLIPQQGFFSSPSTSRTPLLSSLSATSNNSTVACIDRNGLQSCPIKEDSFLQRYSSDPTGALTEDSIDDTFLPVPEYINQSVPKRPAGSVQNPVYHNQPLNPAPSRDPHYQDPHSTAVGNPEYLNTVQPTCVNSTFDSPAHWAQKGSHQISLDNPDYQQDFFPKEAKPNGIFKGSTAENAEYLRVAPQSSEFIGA
Chain of ErbB1 (P00533 25-1210): as above

Structure (SMILES)	IC50 (EGFR (WT)) [nM]	IC50 (BTK) [nM]	IC50 (EGFR (T790M/L858R)) [nM]	inhibition at 1 µM (ErbB1) [%]	IC50 (JAK3) [nM]
C#Cc1cccc(Nc2cc(Nc3cccc(Br)c3)ncn2)c1 [I-12, N^4-(3-Bromophenyl)-N^6-(3-ethynylphenyl)pyrimidine-4,6-diamine]	10 to 100	≥ 10000	≥ 10000	82	≥ 10000
CN(C)C/C=C/C(=O)N(C)c1cccc(Nc2cc(Nc3ccc(F)c(Cl)c3)ncn2)c1 [I-48]	100 to 1000	10 to 100	100 to 1000		≥ 10000
O=C(Nc1cccc(Nc2cc(Nc3ccc(F)c(Cl)c3)ncn2)c1)C1(C(F)(F)F)CC1 [I-51, N-[3-(6-{3-chloro-4-fluorophenyl}aminopyrimidin-4-yl)aminophenyl]-1-trifluoromethylcyclopropanecarboxamide]	≤ 10	≥ 10000	1000 to 10000		≥ 10000
C=CC(=O)N(C)c1cccc(Nc2cc(Nc3ccc(F)c(Cl)c3)ncn2)c1 [I-53, N-3-[6-(3-chloro-4-fluorophenylamino)pyrimidin-4-yl]aminophenyl-N-methyl-2-propenamide]	10 to 100	10 to 100	100 to 1000		100 to 1000
Cc1ccc(NC(=O)/C=C/CN(C)C)cc1Nc1cc(Nc2ccc(F)c(Cl)c2)ncn1 [I-54, (E)-N-[3-(6-{3-Chloro-4-fluorophenyl}amino-pyrimidin-4-ylamino)-4-methylphenyl]-4-(dimethylamino)but-2-enamide]	≤ 10	100 to 1000	≤ 10		1000 to 10000
Cc1cccc(Nc2cc(Nc3cccc(NC(=O)/C=C/CN4CCNCC4)c3)ncn2)c1 [I-57, (E)-N-3-(6-[3-methylphenyl]aminopyrimidin-4-yl)aminophenyl-4-piperazinyl-2-butenamide]		1000 to 10000	100 to 1000		≥ 10000
C#CCN(C)C/C=C/C(=O)Nc1cccc(Nc2cc(Nc3cccc(C)c3)ncn2)c1 [I-58, (E)-N-3-(6-[3-methylphenyl]aminopyrimidin-4-yl)aminophenyl-4-(methyl-prop-2-ynyl)amino-2-butenamide]		1000 to 10000	100 to 1000		100 to 1000
CC(=O)N1CCN(C/C=C/C(=O)Nc2cccc(Nc3cc(Nc4cccc(C)c4)ncn3)c2)CC1 [I-60, (E)-N-3-(6-[3-methylphenylamino]-pyrimidin-4-yl)aminophenyl-4-(4-acetylpiperazin-1yl)-2-butenamide]	1000 to 10000	1000 to 10000	100 to 1000		1000 to 10000
[2H]C([2H])([2H])N(C/C=C/C(=O)Nc1cccc(Nc2cc(Nc3ccc(F)c(Cl)c3)ncn2)c1)C([2H])([2H])[2H] [I-61]		10 to 100	≤ 10		10 to 100
C=CC(=O)Nc1cccc(Nc2cc(Nc3ccccc3)ncn2)c1 [I-67, N-3-[6-(phenylamino)-pyrimidin-4-yl]aminophenylpropenamide]	≤ 10	10 to 100	≤ 10		≤ 10

Results, then the molecule that gave them:

IC50 (EGFR (WT)) [nM]	IC50 (BTK) [nM]	IC50 (EGFR (T790M/L858R)) [nM]	inhibition at 1 µM (ErbB1) [%]	IC50 (JAK3) [nM]	Structure (SMILES)
10 to 100	≥ 10000	≥ 10000	79	≥ 10000	C#Cc1cccc(Nc2cc(Nc3cccc(C#C)c3)ncn2)c1 [I-11, N^4,N^6-bis(3-ethynylphenyl)pyrimidine-4,6-diamine]
≤ 10	100 to 1000	≤ 10		1000 to 10000	CN(C)C/C=C/C(=O)Nc1cccc(Nc2cc(Nc3ccc(OCc4cccc(F)c4)c(Cl)c3)ncn2)c1 [I-46]
≤ 10	≥ 10000	≥ 10000		≥ 10000	N#CC1(C(=O)Nc2cccc(Nc3cc(Nc4ccc(F)c(Cl)c4)ncn3)c2)CC1 [I-47, N-[3-(6-{3-chloro-4-fluorophenylamino}pyrimidin-4-yl)amino]phenyl-1-cyanocyclopropanecarboxamide]
≤ 10	≤ 10	≤ 10		≤ 10	O=C(CCl)Nc1cccc(Nc2cc(Nc3ccc(F)c(Cl)c3)ncn2)c1 [I-49, 2-chloro-N-{3-[6-(3-chloro-4-fluorophenylamino)-pyrimidin-4-ylamino]-phenyl}-acetamide]
≤ 10	10 to 100	≤ 10		10 to 100	C=CC(=O)Nc1cccc(Nc2cc(Nc3ccc(Br)cc3F)ncn2)c1 [I-55]
≤ 10	10 to 100	≤ 10		10 to 100	O=C(/C=C/CN1CCCC1)Nc1cccc(Nc2cc(Nc3ccc(F)c(Cl)c3)ncn2)c1 [I-56]
≤ 10	100 to 1000	≤ 10		1000 to 10000	COc1ccc(NC(=O)/C=C/CN(C)C)cc1Nc1cc(Nc2ccc(F)c(Cl)c2)ncn1 [I-59]
